In PubChem BioAssay AID2060496 (Molecular Pharmacology Branch, DTP, NCI, 2025):

Tested on: 276233-004-R-J1-PDC complex spheroid viability
Assay: Anticancer human tumor 276233-004-R-J1-PDC patient-derived colon adenocarcinoma cell line growth inhibition [GQUAD]
Conditions: for IC50: curve of first compound; for viability, T/C: stronger effect = lower value; active = viability on the fitted dose curve at most 10% of control; inactive = the rest
Text: DNA G-quadruplex Stabilizer Agents in Combinations in Complex Spheroids
A high-throughput screen of multi-cell type tumor spheroids was designed to identify active combinations of DNA G-quadruplex stabilizer agents and targeted small molecules. Complex spheroids include a stromal component modeled by human endothelial cells (HUVEC) and fibroblasts modeled by human mesenchymal stem cells (MSCs). The concentration ranges selected for each drug and investigational agent were based upon clinically achievable concentrations if the clinical Cmax of the agent was known.
Compounds. The drugs and investigational agents: pidnarulex (CX-5461; NSC782164), APTO-253 (NSC789042), BRACO-19 (NSC847499), peposertib (NSC802822), ceralasertib (NSC780249), elimusertib (NSC800525), camonsertib (NSC841442), AZD-1390 (NSC803789), olaparib (NSC753686), talazoparib (NSC767125), ART-558 (NSC835418), sotorasib (NSC818433), MRTX-1133 (NSC836407), SN-38 (NSC673596), topotecan (NSC609699), etoposide (NSC141540), doxorubicin (NSC123127), gemcitabine (NSC613327), 5-fluorouracil (NSC19893), paclitaxel (NSC125973), vemurafenib (NSC761431), panobinostat (NSC761190), R-306465 (JNJ-16241199; NSC773264), adavosertib (NSC754352), TP-3654 (NSC805149), carboplatin (NSC241240), KSQ-4279 (NSC840948), and staurosporine (NSC755774) were obtained from the National Cancer Institute (NCI) Developmental Therapeutics Program Chemical Repository (34). The FDA-approved anticancer drug set is available from the NCI Developmental Therapeutics Program. […] The stock solutions were prepared in dimethyl sulfoxide (DMSO, Sigma-Aldrich, St. Louis, MO, cat. D2650) at 800-fold the tested concentration and stored at -70 degrees C prior to their use. All drugs and investigational agents were tested over a range starting from a high concentration at or near the clinical Cmax and decreasing in half-log increments. If the clinical Cmax for an agent had not been determined, the highest concentration tested was 10 microM.
2.3 Cell Culture. All cells were maintained in an incubator at 37 degrees C and 5% CO2 with 95% humidity. The PDC lines were cultured according to standard operating procedures established by the NCI PDMR. All PDCs were thawed and cultured in Matrigel-coated flasks prepared with a working solution of 1X Ham's F-12 nutrient mix, without supplementation (Invitrogen, cat. 11765054), 100 U/mL penicillin-streptomycin (Invitrogen, cat. 15140122), and 2.5% Matrigel (Corning Inc., cat. 354248) for the first three passages. The 857933-349-R-J2-PDC line was cultured in 6C/Colon 1B media, which includes advanced DMEM/F-12 (Thermo Fisher Scientific, cat. 12634028), 10 mM HEPES (Thermo Fisher Scientific, cat. 15630080), 1X GlutaMAX supplement (Thermo Fisher Scientific, cat. 35050061), 0.1 mg/mL primocin (InvivoGen, cat. ant-pm-2), 10% defined fetal bovine serum, heat inactivated (HyClone Laboratories Inc., cat. SH30070.03HI), 50% L-WRN conditioned media (ATCC, cat. CRL-3276), 1.25 mM N-Acetyl-L-cysteine (Sigma-Aldrich, cat. A9165), 10 mM nicotinamide (Sigma-Aldrich, cat. N0636), 1X B-27 supplement (Thermo Fisher Scientific, cat. 17504044), 1X N-2 supplement (Thermo Fisher Scientific, cat. 17502048), 10 microM Y-27632 dihydrochloride (Tocris Bioscience, cat. 1254), and 50 ng/mL human EGF recombinant protein (Thermo Fisher Scientific, cat. PHG0311). The 485176-168-R4-J1-PDC line was cultured in Panc media, which includes all 6C/Colon 1B media components plus 100 ng/mL human FGF-10 (Thermo Fisher Scientific, cat. 100-26), 500 nM SB-431542 (Selleckchem, cat. S1067), and gastrin (Tocris, cat. 3006).
[…]
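Also: spheroids exposed to drugs for seven days.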

CC(C)(O)C1CCC(Nc2ccc3ncc(-c4cccc(C(F)(F)F)c4)n3n2)CC1 (configuration not stated) + Cc1[nH]c2ccc(F)cc2c1-c1nc2c3cccnc3c3ncccc3c2[nH]1
922 nM: IC50 (second compound 0.1 µM)
active: viability, T/C (second compound 3.16 µM, first compound 10 µM) 7.57% | viability, T/C (second compound 10 µM, first compound 10 µM) 10.8%
< 31.6 nM: IC50 (second compound 1 µM) | IC50 (second compound 3.16 µM) | IC50 (second compound 10 µM)
558 nM: IC50 (second compound 0.316 µM)
2150 nM: IC50 (second compound 0.0316 µM)
inactive: viability, T/C (second compound 0.0316 µM, first compound 0.0316 µM) 78.5% | viability, T/C (second compound 0.0316 µM, first compound 0.1 µM) 68.9% | viability, T/C (second compound 0.0316 µM, first compound 0.316 µM) 72.2% | viability, T/C (second compound 0.0316 µM, first compound 1 µM) 54.3% | viability, T/C (second compound 0.0316 µM, first compound 3.16 µM) 46.7% | viability, T/C (second compound 0.0316 µM, first compound 10 µM) 48.8% | viability, T/C (second compound 0.1 µM, first compound 0.0316 µM) 73.3% | viability, T/C (second compound 0.1 µM, first compound 0.1 µM) 71% | viability, T/C (second compound 0.1 µM, first compound 0.316 µM) 75.6% | viability, T/C (second compound 0.1 µM, first compound 1 µM) 48.2% | viability, T/C (second compound 0.1 µM, first compound 3.16 µM) 42.2% | viability, T/C (second compound 0.1 µM, first compound 10 µM) 43.7% | viability, T/C (second compound 0.316 µM, first compound 0.0316 µM) 56.8% | viability, T/C (second compound 0.316 µM, first compound 0.1 µM) 61% | viability, T/C (second compound 0.316 µM, first compound 0.316 µM) 64.2% | viability, T/C (second compound 0.316 µM, first compound 1 µM) 39% | viability, T/C (second compound 0.316 µM, first compound 3.16 µM) 34.8% | viability, T/C (second compound 0.316 µM, first compound 10 µM) 40.9% | viability, T/C (second compound 1 µM, first compound 0.0316 µM) 46.4% | viability, T/C (second compound 1 µM, first compound 0.1 µM) 39.4% | viability, T/C (second compound 1 µM, first compound 0.316 µM) 40% | viability, T/C (second compound 1 µM, first compound 1 µM) 25.2% | viability, T/C (second compound 1 µM, first compound 3.16 µM) 26.6% | viability, T/C (second compound 1 µM, first compound 10 µM) 24.5% | viability, T/C (second compound 3.16 µM, first compound 0.0316 µM) 17.1% | viability, T/C (second compound 3.16 µM, first compound 0.1 µM) 14.1% | viability, T/C (second compound 3.16 µM, first compound 0.316 µM) 17.6% | viability, T/C (second compound 3.16 µM, first compound 1 µM) 16.2% | viability, T/C (second compound 3.16 µM, first compound 3.16 µM) 10.1% | viability, T/C (second compound 10 µM, first compound 0.0316 µM) 39.4% | viability, T/C (second compound 10 µM, first compound 0.1 µM) 38% | viability, T/C (second compound 10 µM, first compound 0.316 µM) 33.9% | viability, T/C (second compound 10 µM, first compound 1 µM) 30.9% | viability, T/C (second compound 10 µM, first compound 3.16 µM) 13.7%
